Experimental data published in patent US20250277001A1, “PEPTIDE DERIVATIVES AND RELATED USES AS OREXIN AGONISTS” (CENTESSA PHARMACEUTICALS (UK) LIMITED, priority 2022, published 2025).
Where two headings read alike, the source gives them in different places. Blank lines part the entries; values can stand above or below the molecule they belong to. Where a SMILES comes first, the peptide text is derived from it. Where no end group is shown, it is not given here. [ ]: non-standard residue; d: D form. The star is where a group is joined. Malonyl(2,2-Me2,histaminyl) = CC(C)(C(=O)NCCc1cnc[nH]1)C(=O)*; d(hArg) = N=C(N)NCCCC[C@@H](N)C(=O)O; Gly(NCH2CH2Ph) = O=C(O)CNCCc1ccccc1; Hyp = O=C(O)[C@@H]1C[C@@H](O)CN1; hArg = N=C(N)NCCCC[C@H](N)C(=O)O; NMeN = CN[C@@H](CC(N)=O)C(=O)O; Aoc(2) = CCCCCC[C@H](N)C(=O)O; Phg = N[C@H](C(=O)O)c1ccccc1

Legend:
mice = conditions: cited from earlier work
individuals with NT1 = conditions: initial clinical studies; cited from earlier work
[1] = biological target: T1, human orexin type 2 receptor (hOX2R) (Homo sapiens, UniProt O43614); assay: Measurement of orexin type 2 receptor agonist activity (CHO cells, FLIPR TETRA intracellular Ca2+); assay type: cell-based
T1 construct: expressed in transfected cells
T1 sequence (O43614 1-444): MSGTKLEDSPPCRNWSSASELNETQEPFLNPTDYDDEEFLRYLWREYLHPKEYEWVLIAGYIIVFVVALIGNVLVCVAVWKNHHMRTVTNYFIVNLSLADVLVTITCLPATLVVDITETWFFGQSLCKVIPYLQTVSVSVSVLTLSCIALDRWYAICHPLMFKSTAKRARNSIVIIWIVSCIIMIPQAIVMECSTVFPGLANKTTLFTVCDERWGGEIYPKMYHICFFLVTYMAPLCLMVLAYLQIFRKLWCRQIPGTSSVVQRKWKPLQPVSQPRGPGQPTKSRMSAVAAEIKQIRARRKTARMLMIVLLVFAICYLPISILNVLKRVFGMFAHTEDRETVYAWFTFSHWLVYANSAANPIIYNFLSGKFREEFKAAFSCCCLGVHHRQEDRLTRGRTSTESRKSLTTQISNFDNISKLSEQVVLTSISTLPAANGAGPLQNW
Source text: (§1) In some embodiments, the assay uses cells stably expressing either human orexin type 2 or human orexin type 1 receptor. In some embodiments, the cells are obtained by inserting the Orexin receptor cDNA into pcDNA3.1(+) plasmid vector, identifying clones by G418 drug resistance selection, and/or growing a single clone for OX2R-CHO and OX1R-CHO in bulk. In some embodiments, the assay is detected using Fluorescent Imaging Plate Reader TETRA (FLIPR TETRA: manufactured by Molecular Devices). In some embodiments, the agonist activity of the test peptide is calculated assuming that the fluorescence value of the well containing only the dilution buffer is 0% and the fluorescence value of the well containing 10 nM human orexin A (Tocris) buffer is 100%.
(§2) Stable cell line generation. Obtainment of cells stably expressing either human orexin type 2 or human orexin type 1 receptor: to obtain a stable cell line the Orexin receptor cDNA was inserted into pcDNA3.1(+) plasmid vector and clones identified by G418 drug resistance selection. […] A single clone for OX2R-CHO and OX1R-CHO were grown in bulk and frozen to generate a cell bank for routine screening.
(§3) Measurement of orexin type 2 receptor agonist activity. Chinese hamster ovary (CHO) cells expressing human orexin type 2 receptor (hOX2R) seeded in each well of 384 well black clear bottom plates (BD Flacon) at 10,000 cells per well and cultured for 24 h in an Ham's F12 (Gibco) medium containing 10% fetal calf serum (Sigma Aldrich) under the conditions of 37° C., 5% CO2. After removal of the medium, 50 μL of assay buffer 1 (0.1% bovine serum albumin (Sigma Aldrich), 20 mM HEPES (Molecular Dimensions), […] probenecid (Sigma Aldrich), 1× Calcium 5 dye (Molecular Devices) in Hank's balanced salt solution (Invitrogen)) was added, and the cells were incubated for 60 min under the conditions of 37° C., 5% CO2. A test peptide was dissolved in dimethyl sulfoxide (Sigma Aldrich) to 1 mM, and then diluted with assay buffer 2 (20 mM HEPES, Hank's balanced salt solution, 0.1% bovine serum albumin). For the reaction, a test peptide solution (10 μl) was added using Fluorescent Imaging Plate Reader TETRA (FLIPR TETRA: manufactured by Molecular Devices), a fluorescence value (excitation wavelength 488 nm, measurement wavelength 570 nm) of each well was measured every one second for 2 min, and the agonist activity was determined using the area of the fluorescence value as an indicator of intracellular Ca^2+ concentration. The agonist activity of the test peptide was calculated assuming that the fluorescence value of the well added with only the dilution buffer was 0% and the fluorescence value of the well added with 10 nM human orexin A (Tocris) buffer was 100%. As used herein, Emax indicates the value at 1 μM concentration when orexin A is converted to a full agonist (maximum value of agonist activity: 100%).

[2] = biological target: T2, human orexin type 1 receptor (hOX1R) (Homo sapiens, UniProt O43613); assay: Measurement of orexin type 1 receptor agonist activity (CHO cells, FLIPR TETRA intracellular Ca2+); assay type: cell-based
T2 construct: expressed in transfected cells
T2 sequence (O43613 1-425): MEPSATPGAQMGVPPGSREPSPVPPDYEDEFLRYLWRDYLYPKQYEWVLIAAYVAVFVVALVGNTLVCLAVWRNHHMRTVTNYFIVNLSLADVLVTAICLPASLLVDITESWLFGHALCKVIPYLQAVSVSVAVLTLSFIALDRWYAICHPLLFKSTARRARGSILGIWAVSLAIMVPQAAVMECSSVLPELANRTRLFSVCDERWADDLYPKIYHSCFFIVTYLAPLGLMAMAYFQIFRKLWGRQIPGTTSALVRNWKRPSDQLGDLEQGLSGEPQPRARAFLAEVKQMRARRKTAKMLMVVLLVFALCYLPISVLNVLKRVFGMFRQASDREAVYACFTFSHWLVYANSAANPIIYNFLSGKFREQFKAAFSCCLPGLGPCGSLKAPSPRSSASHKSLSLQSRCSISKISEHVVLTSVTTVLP
Source text: as §1, §2
as §3, with “type 1” for “type 2”, “receptor (hOX1R) were” for “receptor (hOX2R)”

[3] = intracerebroventricular (ICV), orexin-neuron ablated mice

Molecule: COC(=O)N1CCC[C@H](NS(C)(=O)=O)[C@@H]1CO[C@H]1CC[C@@H](c2ccccc2)CC1 [TAK-925]
- wakefulness (mice; subcutaneous, OX2R-knockout mice): not
- wakefulness (mice; subcutaneous, WT mice): modestly increased
- cataplexy (individuals with NT1): trends for decreasing cataplexy
- wakefulness (individuals with NT1): substantial levels of increased wakefulness

Molecule: COc1ccc(-c2cccc(C(=O)N(C)C)c2)cc1S(=O)(=O)Nc1cccc(NCCNC(=O)c2ccccc2N(C)C)c1 [YNT-185]
- sleep-onset REM periods and cataplexy-like events (mice; NT1 mouse model): decreases
- wakefulness (mice; intraperitoneally or ICV, wild type (WT) and orexin ligand-deficient mice): modestly increases

- EC50 ([1]; CHO cells expressing hOX2R, Ca2+ fluorescence, read-out: hOX2 pEC50 (converted)): < 0.1 nM
- EC50 ([2]; CHO cells expressing hOX1R, Ca2+ fluorescence, read-out: hOX1 pEC50 (converted)): > 10 nM
Molecule: CCCCCC[C@H](NC(=O)[C@@H](NC(=O)[C@H](CC(C)C)NC(=O)[C@@H](NC(=O)CNC(=O)[C@@H](NC(=O)[C@H](C)NC(=O)[C@@H]1C[C@@H](O)CN1C(=O)[C@H](CC(N)=O)N(C)C(=O)CN(CCc1ccccc1)C(=O)[C@H](CCCNC(=N)N)NC(=O)[C@H](CCCNC(=N)N)NC(=O)[C@@H]1C[C@@H](O)CN1C(=O)[C@@H]1C[C@@H](O)CN1C(=O)[C@@H]1C[C@@H](O)CN1)c1ccccc1)[C@@H](C)CC)[C@@H](C)O)C(N)=O [compound 16] (H-[Hyp][Hyp][Hyp]RR[Gly(NCH2CH2Ph)][NMeN][Hyp]A[Phg]GILT[Aoc(2)]-NH2)

Molecule: CCCCCC[C@H](NC(=O)[C@@H](NC(=O)[C@H](CC(C)C)NC(=O)[C@@H](NC(=O)CNC(=O)[C@@H](NC(=O)[C@H](C)NC(=O)[C@@H]1C[C@@H](O)CN1C(=O)[C@H](CC(N)=O)N(C)C(=O)CN(CCc1ccccc1)C(=O)[C@H](CCCNC(=N)N)NC(=O)[C@H](CCCNC(=N)N)NC(=O)[C@@H]1CCCN1C(=O)[C@H](CCCCNC(=N)N)NC(=O)[C@H](CCC(N)=O)NC(=O)C(C)(C)C(=O)NCCc1cnc[nH]1)c1ccccc1)[C@@H](C)CC)[C@@H](C)O)C(N)=O [compound 17] ({Malonyl(2,2-Me2,histaminyl)}-Q[hArg]PRR[Gly(NCH2CH2Ph)][NMeN][Hyp]A[Phg]GILT[Aoc(2)]-NH2)
- EC50 [1]: < 0.1 nM
- EC50 [2]: > 10 nM

Molecule: CCCCCC[C@H](NC(=O)[C@@H](NC(=O)[C@H](CC(C)C)NC(=O)[C@@H](NC(=O)CNC(=O)[C@@H](NC(=O)[C@H](C)NC(=O)[C@@H]1C[C@@H](O)CN1C(=O)[C@H](CC(N)=O)N(C)C(=O)CN(CCc1ccccc1)C(=O)[C@H](CCCNC(=N)N)NC(=O)[C@H](CCCNC(=N)N)NC(=O)[C@H]1CCCN1C(=O)[C@@H](CCCCNC(=N)N)NC(=O)[C@@H](CCC(N)=O)NC(=O)C(C)(C)C(=O)NCCc1cnc[nH]1)c1ccccc1)[C@@H](C)CC)[C@@H](C)O)C(N)=O [compound 18] ({Malonyl(2,2-Me2,histaminyl)}-[dQ][d(hArg)][dP]RR[Gly(NCH2CH2Ph)][NMeN][Hyp]A[Phg]GILT[Aoc(2)]-NH2)
- EC50 [1]: < 0.1 nM
- EC50 [2]: > 10 nM

Molecule: CCCCCC[C@H](NC(=O)[C@@H](NC(=O)[C@H](CC(C)C)NC(=O)[C@@H](NC(=O)CNC(=O)[C@@H](NC(=O)[C@H](C)NC(=O)[C@@H]1C[C@@H](O)CN1C(=O)[C@H](CC(N)=O)N(C)C(=O)CN(CCc1ccccc1)C(=O)[C@H](CCCNC(=N)N)NC(=O)[C@H](CCCNC(=N)N)NC(=O)[C@@H]1CCCN1C(=O)[C@H](CCCCNC(=N)N)NC(=O)[C@@H](CCC(N)=O)NC(=O)C(C)(C)C(=O)NCCc1cnc[nH]1)c1ccccc1)[C@@H](C)CC)[C@@H](C)O)C(N)=O [compound 19] ({Malonyl(2,2-Me2,histaminyl)}-[dQ][hArg]PRR[Gly(NCH2CH2Ph)][NMeN][Hyp]A[Phg]GILT[Aoc(2)]-NH2)
- EC50 [1]: < 0.1 nM
- EC50 [2]: > 10 nM

Molecule: CCCCCC[C@H](NC(=O)[C@@H](NC(=O)[C@H](CC(C)C)NC(=O)[C@@H](NC(=O)CNC(=O)[C@@H](NC(=O)[C@H](C)NC(=O)[C@@H]1C[C@@H](O)CN1C(=O)[C@H](CC(N)=O)NC(=O)CN(CCc1ccccc1)C(=O)[C@H](CCCNC(=N)N)NC(=O)[C@H](CCCNC(=N)N)NC(=O)[C@@H]1CCCN1C(=O)[C@H](CCCCNC(=N)N)NC(=O)[C@@H](CCC(N)=O)NC(=O)C(C)(C)C(=O)NCCc1cnc[nH]1)c1ccccc1)[C@@H](C)CC)[C@@H](C)O)C(N)=O [compound 20] ({Malonyl(2,2-Me2,histaminyl)}-[dQ][hArg]PRR[Gly(NCH2CH2Ph)]N[Hyp]A[Phg]GILT[Aoc(2)]-NH2)
- EC50 [1]: < 0.1 nM
- EC50 [2]: 1 to 10 nM

Molecule: orexin A (QPLPDCCRQKTCSCRLYELLHGAGNHAAGILTL; ends and bridges not checked; cysteine pairing not given here; UniProt O43612 34-66, looked up) [orexin neuropeptide, also known as hypocretin-1]
- cataplexy-like behavior (mice; [3]): decreases
- time spent awake (mice; [3]): increase
